Measured values reported in patent US20120022116A1, “COMPOSITIONS AND METHODS FOR THE TREATMENT OF PATHOLOGICAL CONDITION(S) RELATED TO GPR35 AND/OR GPR35-HERG COMPLEX” (priority 2010, published 2012).
Entries after “also recorded” stand apart in the source; their conditions may differ. Read-outs that look alike come from different tables or passages of the source.

Legend:
GPR35 [1] = assay: DMR desensitization / antagonism mode against GPR35 agonist-induced DMR in HT29 cells; format: cell-based, human
hERG channel = hERG channel (Homo sapiens, UniProt Q12809); assay: Automated patch clamp recording of hERG tail current (IonWorks); details: hERG tail current ratio post/pre-compound, 50 uM
GPR35 [2] = target: T1, GPR35 (Homo sapiens, UniProt Q9HC97); assay: Ca2+ mobilization assay (Fluo-4) in HEK-GPR35-Gqo5 cells; format: cell-based; details: for Ca2+ moblization (HEK-GPR35-Gqo5): HEK293 cells co-expressing GPR35 and Gqo5, Fluo-4, compounds 10 μM; for Ca2+ mobilization signal in cells co-expressing GPR35 and Gqo5: engineered HEK293, 10 μM
T1 construct: myc; expressed in transfected cells; host or cells: HEK293, transient co-transfection (Lipofectamine LTX)

[3] = HT29 cells pretreated with compound, then GPR35 agonist
[4] = HT29, zaprinast 400 nM, U73122, cytochalasin D, Y27632 10 micromolar, CTX 1 microgram/ml, PTX 100 nanogram/ml

T1 sequence (Q9HC97 whole entry): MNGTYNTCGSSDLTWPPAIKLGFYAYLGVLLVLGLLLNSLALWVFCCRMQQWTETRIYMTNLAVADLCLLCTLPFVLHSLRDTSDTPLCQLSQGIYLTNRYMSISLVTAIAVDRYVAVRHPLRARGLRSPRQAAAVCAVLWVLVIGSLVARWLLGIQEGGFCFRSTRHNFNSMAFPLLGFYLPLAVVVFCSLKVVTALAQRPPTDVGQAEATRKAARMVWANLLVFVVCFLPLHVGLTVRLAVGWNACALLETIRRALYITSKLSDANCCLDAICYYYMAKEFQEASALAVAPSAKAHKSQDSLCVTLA
GPR35, sequence (Q9HC97 whole entry): as above
hERG channel, sequence (Q12809 whole entry): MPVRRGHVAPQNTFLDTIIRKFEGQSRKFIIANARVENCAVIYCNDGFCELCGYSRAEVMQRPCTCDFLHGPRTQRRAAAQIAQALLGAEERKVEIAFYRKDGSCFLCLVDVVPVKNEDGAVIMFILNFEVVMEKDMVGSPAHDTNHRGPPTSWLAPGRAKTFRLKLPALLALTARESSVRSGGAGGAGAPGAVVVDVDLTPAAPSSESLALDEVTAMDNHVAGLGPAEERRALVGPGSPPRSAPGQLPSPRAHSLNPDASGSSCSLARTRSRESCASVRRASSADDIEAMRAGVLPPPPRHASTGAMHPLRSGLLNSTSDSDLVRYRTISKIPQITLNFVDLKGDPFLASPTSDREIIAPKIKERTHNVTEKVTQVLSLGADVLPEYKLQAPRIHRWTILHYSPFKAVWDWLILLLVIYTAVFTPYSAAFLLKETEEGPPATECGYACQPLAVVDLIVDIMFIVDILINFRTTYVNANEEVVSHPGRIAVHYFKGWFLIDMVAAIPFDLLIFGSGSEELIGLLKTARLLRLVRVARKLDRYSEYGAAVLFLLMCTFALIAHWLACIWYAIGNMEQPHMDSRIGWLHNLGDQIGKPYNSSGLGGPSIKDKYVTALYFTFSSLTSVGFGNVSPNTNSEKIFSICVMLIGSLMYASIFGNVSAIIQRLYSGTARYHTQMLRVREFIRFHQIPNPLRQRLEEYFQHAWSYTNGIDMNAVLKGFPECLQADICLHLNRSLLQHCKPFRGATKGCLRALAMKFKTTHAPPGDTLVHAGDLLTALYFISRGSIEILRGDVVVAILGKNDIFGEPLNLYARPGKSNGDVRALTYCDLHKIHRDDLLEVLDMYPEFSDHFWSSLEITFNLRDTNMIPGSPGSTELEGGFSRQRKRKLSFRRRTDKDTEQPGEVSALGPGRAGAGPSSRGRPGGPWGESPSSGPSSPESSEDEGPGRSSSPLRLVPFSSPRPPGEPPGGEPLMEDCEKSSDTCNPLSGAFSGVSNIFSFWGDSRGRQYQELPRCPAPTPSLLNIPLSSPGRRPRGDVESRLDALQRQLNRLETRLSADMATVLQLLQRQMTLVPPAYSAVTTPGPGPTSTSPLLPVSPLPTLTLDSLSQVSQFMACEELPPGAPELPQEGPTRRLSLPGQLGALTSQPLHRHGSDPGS

Molecule	Desenstization to GPR35 agonist (GPR35 [1]; [3])	Electrophysiology (HEK-hERG) (hERG channel)	Ca2+ moblization (HEK-GPR35-Gqo5) (GPR35 [2])	other results
CC(C)(C)c1cc(C=C(C#N)C#N)cc(Br)c1O [AG1024]	desenstized			
O=C(O)c1cccnc1Nc1cccc(C(F)(F)F)c1 [Niflumic acid]	desenstized	activator	active	Ca2+ mobilization signal in cells co-expressing GPR35 and Gqo5 (GPR35 [2]): active
CCCCCCCCCCCc1c(C(=O)O)sc2c(Br)csc12 [Compound 16, 3-n-undecyl-6-bromo-thieno[3,2-b]thiophene-2-carboxylic acid]		inactive		Desenstization to GPR35 agonist (GPR35 [1]): desenstized
CC1=C(C#N)C(=C(C#N)C(N)=C(C#N)C#N)OC1(C)C [Compound 08, 2-cyano-2-(1-amino-2,2-dicyanovinyl)methylene-3-cyano-4,5,5-trimethyl-2,5-dihydrofuran]	desenstized	inactive	active	
O=Cc1ccc(-c2cccs2)s1 [Compound 30, 2,2′-bithiophene-5-carboxaldehyde]	desenstized	blocker	inactive	
O=C(O)c1cc(-c2ccc(F)cc2F)ccc1O [Diflunisal]	desenstized	activator	active	Ca2+ mobilization signal in cells co-expressing GPR35 and Gqo5 (GPR35 [2]): active
CC1=C(C#N)C(=C(C#N)C#N)OC12c1ccccc1-c1ccccc12 [Compound 05, 2-dicyanomethylene-3-cyano-4-methyl-5-spiro-fluorenylidine-2,5-dihydrofuran]	desenstized	inactive	inactive	
O=C(O)c1cc(=O)c2ccccc2[nH]1 [Kynurenic acid]	desenstized	inactive	inactive	
CC1=C(C#N)C(=C(C#N)C#N)OC1(C)c1ccc(F)cc1F (stereo not shown) [Compound 02, 2-dicyanomethylene-3-cyano-4,5-dimethyl-5-[2′,4′-difluorophenyl]-2,5-dihydrofuran]	desenstized	inactive	active	
O=C(O)Cc1ccccc1Nc1c(Cl)cccc1Cl [Diclofenac]	desenstized		inactive	
CCCCCCCCCCCCCc1c(C(=O)O)sc2c(Br)csc12 [Compound 17, 3-n-tridecyl-6-bromo-thieno[3,2-b]thiophene-2-carboxylic acid]		activator		Desenstization to GPR35 agonist (GPR35 [1]): desenstized
Cc1c(Nc2ncccc2C(=O)O)cccc1C(F)(F)F [Flunixin]	desenstized	activator	active	Ca2+ mobilization signal in cells co-expressing GPR35 and Gqo5 (GPR35 [2]): active
OCCN(CCO)c1ccc(C=Cc2cccs2)cc1 [Compound 24, N,N-bis(2-hydroxyethyl)-4-[2-(thiophene-2-yl)vinyl]aniline]	inactive	inactive	inactive	
CC1=C(C#N)C(=C(C#N)C#N)OC1(C)c1ccc(Cl)c(Cl)c1Cl (stereo not shown) [Compound 06, 2-dicyanomethylene-3-cyano-4,5-dimethyl-5-[2′,3′,4′-trichlorophenyl]-2,5-dihydrofuran]	desenstized	inactive	inactive	
CCCCCCCCCCC(=O)c1sc2c(Br)csc2c1Br [Compound 15, 3,6-dibromo-thieno[3,2-b]thiophene-2-undecanone]		inactive		
N#CC(=Cc1ccc2[nH]ccc2c1)C(N)=C(C#N)C#N [AG370]	desenstized	inactive		
N#CC(C#N)=Cc1ccc(O)c(O)c1 [Tyrphostin 23]	desenstized			
COc1ccc2c(c1)CC[C@@H]1[C@@H]2CC[C@]2(C)[C@@H](NCCCCCCN3C(=O)C=CC3=O)CC[C@@H]12 [Compound U73122, U73122]				effect of pathway agent pretreatment on the zaprinast DMR signal (GPR35 [1]; [4]): insensitive; effect of pathway agent on the 6-bromo-3-methylthieno[3,2-b]thiophene-2-carboxylic acid DMR (GPR35 [1]; HT29 cells): insensitive
CCCCCCCCCCCCCCCc1c(C(=O)O)sc2c(Br)csc12 [Compound 19, 3-n-pentadecyl-6-bromo-thieno[3,2-b]thiophene-2-carboxylic acid]	desenstized	activator		
Cc1c(Cl)cccc1Nc1ccccc1C(=O)O [Tolfenamic acid]	desenstized	blocker	active	Ca2+ mobilization signal in cells co-expressing GPR35 and Gqo5 (GPR35 [2]): active
N#CC(C#N)=C(N)/C(C#N)=C/c1ccc(O)cc1 [AG112]	desenstized			
cholera toxin				effect of pathway agent on the 6-bromo-3-methylthieno[3,2-b]thiophene-2-carboxylic acid DMR (GPR35 [1]): insensitive; effect of pathway agent pretreatment on the zaprinast DMR signal (GPR35 [1]): insensitive

Molecule	Desenstization to GPR35 agonist (GPR35 [1]; [3])	Electrophysiology (HEK-hERG) (hERG channel)	Ca2+ moblization (HEK-GPR35-Gqo5) (GPR35 [2])	other results
Cc1csc2c1sc1cc(C(=O)O)sc12 [Compound 22, 5-methyl-dithieno[3,2-b:2′,3′-d]thiophene-2-carboxylic acid]	desenstized	inactive	inactive	
CCCCCCCCCCc1c(C(=O)O)sc2c(Br)csc12 [Compound 18, 3-n-decyl-6-bromo-thieno[3,2-b]thiophene-2-carboxylic acid]	desenstized	activator		
C[C@@H](N)[C@H]1CC[C@H](C(=O)Nc2ccncc2)CC1 [Compound Y27632, Y27632]				effect of pathway agent pretreatment on the zaprinast DMR signal (GPR35 [1]; [4]): partially attenuated; effect of pathway agent on the 6-bromo-3-methylthieno[3,2-b]thiophene-2-carboxylic acid DMR (GPR35 [1]; HT29 cells): partially attenuated
C=C1[C@@H](C)[C@H]2[C@H](Cc3ccccc3)NC(=O)[C@]23[C@H](OC(C)=O)/C=C/[C@@](C)(O)C(=O)[C@@H](C)C/C=C/[C@H]3[C@@H]1O [cytochalasin D]				effect of pathway agent pretreatment on the zaprinast DMR signal (GPR35 [1]; [4]): completely attenuated; also recorded: completely block; effect of pathway agent on the 6-bromo-3-methylthieno[3,2-b]thiophene-2-carboxylic acid DMR (GPR35 [1]; HT29 cells): blocked
N#CC(C#N)=Cc1ccc([N+](=O)[O-])c(O)c1 [AG126]	desenstized	inactive		
O=Cc1ccc(-c2ccc(CO)s2)s1 [Compound 28, 5-hydroxymethyl-5′-formyl-2,2′-bithiophene]	desenstized	inactive	inactive	
OCc1ccc(-c2cccs2)s1 [Compound 27, 2,2′-bithiophene-5-methanol]	inactive	blocker	inactive	
CC1=C(C#N)C(=C(C#N)C#N)OC1(C)C [Compound 10, 2-dicyanomethylene-3-cyano-4,5,5-trimethyl-2,5-dihydrofuran]	desenstized	inactive	active	
COC(=O)c1ccc(C=Cc2ccc(N(C)CCO)cc2)s1 [Compound 25, methyl-5-{2-[4-(N-methyl,N-2-hydroxyethyl-amino)phenyl]ethenyl}-thiophene-2-formate]	desenstized	inactive	active	
O=C(O)c1ccccc1Nc1ccc(CCc2ccc(Cl)c(Cl)c2)cc1 [PD-118057]	desenstized	activator		
CC1=C(C#N)C(=C(C#N)C#N)OC12CCCCC2 [Compound 03, 2-dicyanomethylene-3-cyano-4-methyl-5-spiro-cyclohexyl-2,5-dihydrofuran]	desenstized	inactive	inactive	
CC1=C(C#N)C(=C(C#N)C#N)OC1(C)c1ccc(Cl)c(Cl)c1 (stereo not shown) [Compound 07, 2-dicyanomethylene-3-cyano-4,5-dimethyl-5-[3′,4′-dichlorophenyl]-2,5-dihydrofuran]	desenstized	inactive	active	
CCNc1nc(C)nc2c1cnn2-c1ccc(C)cc1 [NSC1619]	inactive	activator		
CCN(CC)C(=O)/C(C#N)=C/c1cc(O)c(O)c([N+](=O)[O-])c1 [Entacapone]		inactive		
N#C/C(=C/c1ccc(O)c(O)c1)C(=O)NCc1ccccc1 [AG490]	desenstized			
N#CC(C#N)=Cc1cc(O)c(O)c([N+](=O)[O-])c1 [AG1288]	desenstized			
O=C(O)c1ccccc1Nc1ccccc1 [N-phenylanthranilic]	desenstized			
COc1cc(/C=C(\C#N)C(N)=O)cc(CSc2nc3ccccc3s2)c1O [AG825]	desenstized			
N#CC(C#N)=Cc1cc(O)c(O)c(O)c1 [Tyrphostin 25]	desenstized	inactive		
Pertussis toxin				effect of pathway agent pretreatment on the zaprinast DMR signal (GPR35 [1]; [4]): insensitive; effect of pathway agent on the 6-bromo-3-methylthieno[3,2-b]thiophene-2-carboxylic acid DMR (GPR35 [1]; HT29 cells): insensitive
NS(=O)(=O)c1cc(C(=O)O)c(NCc2ccco2)cc1Cl [Furosemdie]	desenstized		active	Ca2+ mobilization signal in cells co-expressing GPR35 and Gqo5 (GPR35 [2]): active
